Reference: publication PMC6259748, “Selection of Peptides Targeting Helix 31 of Bacterial 16S Ribosomal RNA by Screening M13 Phage-Display Libraries” (Molecules, 2011)
“Also recorded” adds a separate entry of the source.

Columns and labels:
wild-type modified h31 [1] = experiment: surface plasmon resonance (SPR), modified h31; type: binding, E. coli; conditions: for ka (association rate constant) / kd (dissociation rate constant): 1:1 Langmuir, 150 mM NaCl, 50 μL/min, 25 °C, CM5 chip; for ka (association rate constant): 10 mM Tris·HCl, 10 mM MgCl2, 1 mM DTT, 0.005% P20, pH 7.5; for kd (dissociation rate constant): pH 7.5, 10 mM MgCl2
Method: Modified h31 was labeled with biotin in order to immobilize the RNA onto a surface and determine the kinetics of peptide binding by surface plasmon resonance (SPR). […] In order to enhance the signal-to-noise ratio, a GFP-protein-fused peptide, TYLPWPA-GFP, was generated and used as the analyte.
Biotinylated, modified h31 RNA was immobilized onto a streptavidin-coated CM5 chip and differing concentrations of TYLPWPA-GFP (10–100 µM) were injected as the analyte. A range of salt concentrations, detergent levels, pH conditions, and flow rates were tested, since these factors affect the peptide-RNA complex formation (data not shown). The apparent dissociation constants were determined under the following optimized conditions: 10 mM Tris·HCl, 150 mM NaCl, 10 mM MgCl2, 1 mM dithiothreitol (DTT), 0.005% (v/v) P20 at pH 7.5 as the running buffer at a flow rate of 50 μL/min.
All immobilization and subsequent binding studies were performed using a BIAcore 2000 instrument set at a temperature of 25 °C. Standard dextran surface BIAcore sensorchips (Sensor chip CM5) were purchased from BIAcore (GE Healthcare, Piscataway, NJ). Standard desorb and sanitize routines were performed according to the BIAcore guidelines before docking a new CM5 sensor chip. All buffers were filtered through sterile 0.2 μm nylon membranes (Millipore™) under vacuum. Before derivatizing the flow cells with streptavidin, the CM5 sensor chip was pre-conditioned using three successive 10 μL injections of chip-preparation solution (10 mM NaOH, 500 mM NaCl) at 100 μL/min, followed by a normalization routine using BIAnormalizing solution (40% glycerol). Streptavidin derivatization was performed according to standard procedures.
Prior to immobilization, the solution of biotinylated RNA in HBS-EP buffer (10 mM HEPES, 3 mM EDTA, 150 mM NaCl, 0.005% P20 at pH 7.4) was renatured by heating to 90 °C for 2 min, cooling gradually to room temperature, and placing on ice. Flow cells were functionalized by injecting 30 μL of RNA at a time using the MANUAL INJECT command at a flow rate of 10 μL/min, until the desired immobilization level was reached. One of the flow cells was used to immobilize RNA, while the adjacent cell remained unmodified to serve as a blank-control for matrix effects. Levels of RNA captured were calculated by subtracting […] for each flow cell. After RNA immobilization, both flow cells were blocked with 100 μL of 1 mg/mL biotin at 5 μL/min.
For the SPR experiments, the peptides were cloned into plasmid pBacEmGH (Cunningham Lab, to be described elsewhere) under transcriptional regulation of a PBAD promoter. Upon induction with L-arabinose, the resulting construct produces a fusion protein in which the peptide is fused to the N-terminus of EmGFP containing a C-terminus 6 x His affinity tag (PEP-EmGFP-6 x His).
Peptide samples were prepared by serial dilutions from stock solutions. Dilutions were made in running buffer (10 mM Tris·HCl, 150 mM NaCl, 10 mM MgCl2, 1 mM DTT, 0.005% (v/v) P20 at pH 7.5). All procedures for binding were automated, as optimized methods using repetitive cycles of sample injection and regeneration. Typically, running buffer was injected for ~30 min prior to experiment to establish a stable baseline value. Peptide solutions (200 μL) were injected at a kinetic flow rate of 50 μL/min, using the KINJECT command. All peptide samples were injected from 7 mm plastic vials (BIAcore) that were capped with pierceable plastic-crimp-caps to minimize carry-over and sample evaporation. Samples were injected in order of increasing concentration. The surface was regenerated using 150 μL of 500 mM NaCl. The data were fit to a 1:1 binding Langmuir model using BIAevaluation 3.0 software. […]

unmodified h31 = experiment: surface plasmon resonance (SPR), unmodified h31; type: binding, E. coli; conditions: analyte 1 μM; ~200 fmoles RNA immobilized; injection time 1 min
Method: All immobilization and subsequent binding studies were performed using a BIAcore 2000 instrument set at a temperature of 25 °C. Standard dextran surface BIAcore sensorchips (Sensor chip CM5) were purchased from BIAcore (GE Healthcare, Piscataway, NJ). Standard desorb and sanitize routines were performed according to the BIAcore guidelines before docking a new CM5 sensor chip. All buffers were filtered through sterile 0.2 μm nylon membranes (Millipore™) under vacuum. […]
Prior to immobilization, the solution of biotinylated RNA in HBS-EP buffer (10 mM HEPES, 3 mM EDTA, 150 mM NaCl, 0.005% P20 at pH 7.4) was renatured by heating to 90 °C for 2 min, cooling gradually to room temperature, and placing on ice. […] Levels of RNA captured were calculated by subtracting response units after injection from response units before injection for each flow cell. […]
Kinetic constants were determined by integration of the experimental data using the differential rate equation dRU/dt = ka·C·(RUmax-RU)-kd·RU to obtain ka and kd values simultaneously (RU = observed response, RUmax = maximum response upon saturation, C = analyte concentration, ka = association rate constant, kd = dissociation rate constant). […]

[2] = tested on: translation of green fluorescent protein (GFP); experiment: coupled in vitro transcription-translation inhibition assay (GFP); type: biochemical, E. coli
Method: A cell-free translation assay was used to test the potential inhibitory effects of the peptides on protein synthesis. Different concentrations of peptides were added to E. coli S30 extracts and the extent of inhibition was monitored by the measurement of green fluorescent protein (GFP) translation.
The inhibitory effects of selected peptides (DIRTQRE, CVRPFAL, FVRPFAL, TLWDLIP and TYLPWPA) on cellular processes were determined by in vitro coupled transcription-translation inhibition assay. The PURExpress™ in vitro protein synthesis kit #E6800S from New England Biolabs (Beverly, MA) was used for this purpose. A DNA template for GFP (pRSETEmGFP plasmid, Invitrogen) was employed at a concentration of 10 µg/mL in a 15 µL of reaction volume. Different concentrations of peptides were added, ranging from 300 µM to 2 mM. The DNA template was added only after mixing of the peptides or streptomycin so that they could bind to their target region first. For the control, streptomycin was added at a final concentration of 300 µM. The reaction was incubated in 384-well, Costar, clear-well, black plates and in situ incubated at 37 °C in a Gemini XPS microplate spectrofluorometer (Molecular Devices, Sunnyvale, CA) and the amount of GFP produced was monitored at different time intervals from 0 min to 2 h by fluorescence (excitation at 487 nm, emission at 509 nm).

[3] = tested on: GFP-S11-labeled 30S subunits; experiment: ribosome-binding assay on Tentagel beads; set-up: species or system E. coli
Method: The purpose of this experiment was to determine whether the selected peptides have affinity for bacterial ribosomes. The binding affinities of various peptides could also be compared by this method. Small ribosomal subunits, 30S, labeled with GFP on ribosomal protein S11 were added to peptides covalently attached to Tentagel beads (Figure 4A). […] The peptides were chemically synthesized on Tentagel beads with their N-termini exposed. Increasing concentrations of GFP-tagged 30S subunits were added to the Tentagel-bound peptides and unbound 30S subunits were removed by washing. Relative fluorescence intensity of the 30S subunits bound to the peptides on bead was determined by imaging on a fluorescence microscope, with the assumption that the level of fluorescence on the beads was proportional to the affinity of the ribosome for the peptide sequence.
Four peptides isolated from the phage-display experiment, […], DIRTQRE, TLWDLIP, and […], were synthesized on Tentagel (Rapp Polymer, Tübingen, Germany) beads using standard Fmoc synthesis. The beads were stored in DMF until use. The beads were then washed three times with 450 μl of water, and three times with 450 μL of the binding buffer B (binding buffer: 20 mM HEPES, pH 7.3, 10 mM MgCl2, 100 mM KCl), using 0.45 μm MWCO Nanosep (Pall Corporation, Ann Arbor, MI). The beads were then centrifuged at 6,000 rpm for 1–2 min.
(§1) Fluorescently labeled 30S subunits were isolated by sucrose gradient centrifugation in 5 mM Mg^2+ [82]. For control experiments, His(6)-EmGFP-S11 was purified using IMAC resin (Bio-Rad, Hercules, CA) and the fluorescence was assayed using beads carrying peptides with ribosomes, beads carrying peptides with His(6)-EmGFP-S11 (no ribosomes) and beads only with ribosomes (no peptides).
(§2) The fluorescent ribosomes were incubated in binding buffer B (20 mM HEPES, pH 7.3, 10 mM MgCl2, 100 mM KCl) at 37 °C for 30 min. Next, 25 pmoles of ribosome solution was added to each peptide, and the mixture was incubated overnight at 4 °C with agitation. Unbound ribosomes were removed by two 450 μL washes with binding buffer B and centrifugation at 6,000 rpm for 1–2 min. The beads were resuspended in 40 μL of binding buffer B for microscope screening and kept on ice until scanning. The beads (20 μL) were spread on microscope slides for scanning (Olympus 1X71 microscope, TH4 100 Olympus lamp, Olympus UCMAD 3 camera, 20× magnification). An average of two pictures were taken per slide, eliminating beads presenting uneven swelling and cracks.

His(6)-EmGFP-S11 protein = experiment: bead control with S11-emGFP protein (no ribosomes); type: binding, E. coli; conditions: purified His(6)-EmGFP-S11 added to peptide on beads
Method: The fluorescence intensity of each set of beads containing the selected peptides was quantified.
as §1, §2

wild-type modified h31 [4] = experiment: surface plasmon resonance (SPR), modified h31; type: binding, E. coli; conditions: SPR kinetic analysis, 1:1 Langmuir; pH 7.5; 150 mM NaCl, 10 mM MgCl2; 50 μL/min; 25 °C; analyte 0–1 μM

Substance	ka (association rate constant) (wild-type modified h31 [1])	kd (dissociation rate constant) (wild-type modified h31 [1])	binding interaction with unmodified h31 (unmodified h31)	inhibition of in vitro protein synthesis ([2]; cell-free translation, summary statement)	order of translation inhibition by peptides (from high to low) ([2]; peptides at 1 mM, 37 °C, GFP fluorescence)	order of binding preference by the 30S subunits (from high to low) ([3]; Tentagel beads, fluorescence microscopy, pH 7.3)	fluorescence on beads after 30S binding ([3]; peptide on Tentagel beads, 30S subunits overnight at 4 °C, 20 mM HEPES, pH 7.3, 10 mM MgCl2, 100 mM KCl, duplicate)	fluorescence on beads with S11-emGFP protein (His(6)-EmGFP-S11 protein)	binding affinity to modified h31 (wild-type modified h31 [1]; in words, comparable to known antibiotics targeting 16S rRNA)	KD (kd/ka) (wild-type modified h31 [4]) [nM]
CVRPFAL-GFP	(120 ± 1) × 10^2 M^-1s^-1	(2.6 ± 0.02) × 10^-3 s^-1	did not reveal any binding interactions; also recorded: No binding interaction was detected	–	–	–	–	–	–	–
TLWDLIP [heptapeptide selected against modified h31, with and without counter selection]	–	–	–	inhibit in vitro protein synthesis	CVRPFAL ≈ FVRPFAL > TLWDLIP > TYLPWPA > DIRTQRE	TYLPWPA > CVRPFAL ≈ TLWDLIP > DIRTQRE	Fluorescence is observed	did not show any fluorescence; also recorded: fluorescence was not observed	high nM	–
TLWDLIP-GFP	(93 ± 2) × 10^2 M^-1s^-1	(3.1 ± 0.3) × 10^-3 s^-1	–	–	–	–	–	–	–	330 ± 7
